Here are results for 14 compounds from patent publication US20230295118A1 (EnhancedBio Inc., priority 2022, published 2023).

What all share (type): cell-based
Assay [1] deals with T1, CDK6 (Homo sapiens, UniProt Q00534).
T1 construct: endogenous in cells
Briefly: CDK6 degradation (DC50, Dmax).

Assay [2] concerns mantle cell lymphoma cell (Mino or JeKo-1). Briefly: Antiproliferative effect, MTS cell viability assay. As to conditions: 72 h; for IC50: mantle cell lymphoma cell (Mino or JeKo-1), MTS assay, read-out: IC50 (anti-proliferation). The method in brief: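 MTS read-out (formazan absorbance at 490 nm) after 72 h exposure of Mino cells to 0–1 μM compound (0.0001, 0.001, 0.01, 0.1, 1 μM). Palbociclib and abemaciclib served as positive controls.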
In general terms: Tetrazolium assays rely on reduction of a dye to a coloured formazan, in cell work by metabolically active cells.

Assay [3] deals with T2, CDK4 (Homo sapiens, UniProt P11802).
T2 construct: endogenous in cells
T2 sequence (P11802 whole entry): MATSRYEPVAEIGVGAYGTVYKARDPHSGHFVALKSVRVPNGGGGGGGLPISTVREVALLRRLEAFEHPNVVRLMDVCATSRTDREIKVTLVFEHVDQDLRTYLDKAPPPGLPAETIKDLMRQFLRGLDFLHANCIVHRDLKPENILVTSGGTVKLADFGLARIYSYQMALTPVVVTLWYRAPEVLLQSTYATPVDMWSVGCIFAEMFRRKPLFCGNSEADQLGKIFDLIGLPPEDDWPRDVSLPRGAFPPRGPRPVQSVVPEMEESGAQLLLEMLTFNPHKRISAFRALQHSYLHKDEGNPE
Briefly: CDK4 degradation (DC50, Dmax).

T1 sequence (Q00534 whole entry): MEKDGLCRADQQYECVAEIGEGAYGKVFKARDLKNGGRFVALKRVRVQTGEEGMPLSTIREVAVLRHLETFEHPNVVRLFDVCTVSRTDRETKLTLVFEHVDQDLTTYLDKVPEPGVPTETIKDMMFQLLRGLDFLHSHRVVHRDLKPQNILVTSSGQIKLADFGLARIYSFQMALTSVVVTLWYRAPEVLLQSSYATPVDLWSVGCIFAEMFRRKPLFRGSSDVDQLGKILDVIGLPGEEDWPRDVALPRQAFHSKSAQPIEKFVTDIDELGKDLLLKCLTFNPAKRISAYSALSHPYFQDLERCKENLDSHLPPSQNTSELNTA

With `CC(=O)c1c(C)c2cnc(Nc3ccc(N4CCN(C5CCN(C(=O)Nc6ccc7c(c6)C(=O)N(C6CCC(=O)NC6=O)C7=O)CC5)CC4)cn3)nc2n(C2CCCC2)c1=O` (centres unmarked) [Compound 39, 4-(4-(6-((6-acetyl-8-cyclopentyl-5-methyl-7-oxo-7,8-dihydropyrido[2,3-d]pyrimidin-2-yl)amino)pyridin-3-yl)piperazin-1-yl)-N-(2-(2,6-dioxopiperidin-3-yl)-1,3-dioxoisoindolin-5-yl)piperidine-1-carboxamide], the DC50 in assay [1] and in assay [3] was 50 to 200 nM each time. The Dmax in assay [1] and in assay [3] was more than 80% throughout. For the same compound, in assay [2], the IC50 was less than 50 nM.
In assay [1], `CC(=O)c1c(C)c2cnc(Nc3ccc(N4CCN(CCCN(C)c5cccc6c5C(=O)N(C5CCC(=O)NC5=O)C6=O)CC4)cn3)nc2n(C2CCCC2)c1=O` (centres unmarked) [Compound 103, 4-((3-(4-(6-((6-acetyl-8-cyclopentyl-5-methyl-7-oxo-7,8-dihydropyrido[2,3-d]pyrimidin-2-yl)amino)pyridin-3-yl)piperazin-1-yl)propyl)(methyl)amino)-2-(2,6-dioxopiperidin-3-yl) isoindoline-1,3-dione] displayed a 50% degradation concentration (DC50) of 50 to 200 nM and a maximal degradation (Dmax) of more than 60%. In assay [2], the IC50 is less than 50 nM. The “inhibition of cell proliferation of Mino cells” value in assay [2] (Mino cells, 0-1 μM, result in words) was “dose-dependent inhibition of cell proliferation”. Moreover, in assay [3], the DC50 was in the range of 50 to 200 nM and the Dmax is more than 60%.
Take `CC(=O)c1c(C)c2cnc(Nc3ccc(N4CCN(C5CCN(C(=O)N6CCC(N7CCN(c8ccc9c(c8)C(=O)N(C8CCC(=O)NC8=O)C9=O)CC7)CC6)CC5)CC4)cn3)nc2n(C2CCCC2)c1=O` (centres unmarked) [Compound 88, 5-(4-(1-(4-(4-(6-((6-acetyl-8-cyclopentyl-5-methyl-7-oxo-7,8-dihydropyrido[2,3-d]pyrimidin-2-yl)amino)pyridin-3-yl)piperazin-1-yl)piperidine-1-carbonyl)piperidin-4-yl)piperazin-1-yl)-2-(2,6-dioxopiperidin-3-yl) isoindoline-1,3-dione]: in assay [1], the DC50 was more than 200 nM and the Dmax was more than 50%. For the same compound, in assay [2], the IC50 is more than 200 nM. For the same compound, in assay [3], the DC50 is more than 200 nM and the Dmax was more than 60%.
In assay [1], `Cc1nc2c(F)cc(-c3nc(Nc4ccc(CN5CCN(CC6CN(c7ccc(N8CCC(=O)NC8=O)cc7)C6)CC5)cn4)ncc3F)cc2n1C(C)C` [Compound 106, 1-(4-(3-((4-((6-((5-fluoro-4-(4-fluoro-1-isopropyl-2-methyl-1H-benzo[d]imidazol-6-yl)pyrimidin-2-yl)amino)pyridin-3-yl)methyl)piperazin-1-yl)methyl)azetidin-1-yl)phenyl) dihydropyrimidine-2,4(1H,3H)-dione] had a DC50 of less than 50 nM and a maximal degradation (Dmax) of more than 80%. Further, the IC50 in assay [2] was less than 50 nM. Moreover, in assay [3], the 50% degradation concentration (DC50) is less than 50 nM and the Dmax was more than 80%.
`Cc1nc2c(F)cc(-c3nc(Nc4ccc(CC5CCN(CC6CCN(c7ccc8c(c7)CN(C7CCC(=O)NC7=O)C8=O)CC6)CC5)cn4)ncc3F)cc2n1C(C)C` (centres unmarked) [Compound 158, 3-(5-(4-((4-((6-((5-fluoro-4-(4-fluoro-1-isopropyl-2-methyl-1H-benzo[d]imidazol-6-yl)pyrimidin-2-yi)amino)pyridin-3-yl)methyl)piperidin-1-yl)methyl)piperidin-1-yl)-1-oxoisoindolin-2-yl)piperidine-2,6-dione]: the DC50 in assay [1] and in assay [3] was 50 to 200 nM in each case. The greatest degradation seen (Dmax) in assay [1] and in assay [3] was more than 80% throughout. The IC50 in assay [2] was less than 50 nM.
For the compound `CC(=O)c1c(C)c2cnc(Nc3ccc(N4CCN(C(=O)N5CCC(CN6CCN(c7ccc8c(c7)C(=O)N(C7CCC(=O)NC7=O)C8=O)CC6)CC5)CC4)cn3)nc2n(C2CCCC2)c1=O` (centres unmarked) [Compound 11], in assay [1], the 50% degradation concentration (DC50) was 50 to 200 nM and the maximal degradation (Dmax) was more than 60%. The IC50 in assay [2] lay in the range of 50 to 200 nM. In assay [3], this compound displayed a DC50 of 50 to 200 nM and a Dmax of more than 60%.
For `Cc1nc2c(F)cc(-c3nc(Nc4ccc(CN5CCN(CC6CCCN(c7ccc(N8CCC(=O)NC8=O)cc7)C6)CC5)cn4)ncc3F)cc2n1C(C)C` (centres unmarked) [Compound 110, 1-(4-(3-((4-((6-((5-fluoro-4-(4-fluoro-1-isopropyl-2-methyl-1H-benzo[d]imidazol-6-yl)pyrimidin-2-yl)amino)pyridin-3-yl)methyl)piperazin-1-yl)methyl)piperidin-1-yl)phenyl) dihydropyrimidine-2,4(1H,3H)-dione], in assay [1], the 50% degradation concentration (DC50) was less than 50 nM and the maximal degradation (Dmax) is more than 80%. In addition, the IC50 in assay [2] is less than 50 nM. In assay [3], this compound had a 50% degradation concentration (DC50) of less than 50 nM and a Dmax of more than 80%.
Turning to `CC(=O)c1c(C)c2cnc(Nc3ccc(N4CCN(C(=O)N5CCC(CCN6CCC(c7ccc8c(c7)C(=O)N(C7CCC(=O)NC7=O)C8=O)CC6)CC5)CC4)cn3)nc2n(C2CCCC2)c1=O` (centres unmarked) [Compound 29, 5-(1-(2-(1-(4-(6-((6-acetyl-8-cyclopentyl-5-methyl-7-oxo-7,8-dihydropyrido[2,3-d]pyrimidin-2-yl)amino)pyridin-3-yl)piperazine-1-carbonyl)piperidin-4-yl)ethyl)piperidin-4-yl)-2-(2,6-dioxopiperidin-3-yl)isoindoline-1,3-dione], the 50% degradation concentration (DC50) in assay [1] and in assay [3] was more than 200 nM each time. The Dmax in assay [1] and in assay [3] was more than 50% in each case. In addition, in assay [2], the IC50 is more than 200 nM.
As to `CC(=O)c1c(C)c2cnc(Nc3ccc(C4CCN(C(=O)C5CN(c6ccc7c(c6)CN(C6CCC(=O)NC6=O)C7=O)C5)CC4)cn3)nc2n(C2CCCC2)c1=O` (centres unmarked) [Compound 130, 3-(5-(3-(4-(6-((6-acetyl-8-cyclopentyl-5-methyl-7-oxo-7,8-dihydropyrido[2,3-d]pyrimidin-2-yl)amino)pyridin-3-yl)piperidine-1-carbonyl)azetidin-1-yl)-1-oxoisoindolin-2-yl)piperidine-2,6-dione], the 50% degradation concentration (DC50) is less than 50 nM in assay [1] and 50 to 200 nM in assay [3]. Besides, the maximal degradation (Dmax) in assay [1] is more than 60%; in assay [3], more than 80%. The IC50 in assay [2] is less than 50 nM.
For the compound `CC(=O)c1c(C)c2cnc(Nc3ccc(N4CCN(CCN(C)c5cccc6c5C(=O)N(C5CCC(=O)NC5=O)C6=O)CC4)cn3)nc2n(C2CCCC2)c1=O` (centres unmarked) [Compound 61, 4-((2-(4-(6-((6-acetyl-8-cyclopentyl-5-methyl-7-oxo-7,8-dihydropyrido[2,3-d]pyrimidin-2-yl)amino)pyridin-3-yl)piperazin-1-yl)ethyl)(methyl)amino)-2-(2,6-dioxopiperidin-3-yl) isoindoline-1,3-dione], in assay [1], the DC50 was 50 to 200 nM and the Dmax was more than 60%. For the same compound, in assay [2], the IC50 is 50 to 200 nM. In assay [3], this compound had a DC50 of 50 to 200 nM and a Dmax of more than 60%.
Consider `CC(=O)c1c(C)c2cnc(Nc3ccc(C4CCN(CC5CN(c6ccc7c(c6)CN(C6CCC(=O)NC6=O)C7=O)C5)CC4)cn3)nc2n(C2CCCC2)c1=O` (centres unmarked) [Compound 126, 3-(5-(3-((4-(6-((6-acetyl-8-cyclopentyl-5-methyl-7-oxo-7,8-dihydropyrido[2,3-d]pyrimidin-2-yl)amino)pyridin-3-yl)piperidin-1-yl)methyl)azetidin-1-yl)-1-oxoisoindolin-2-yl) piperidine-2,6-dione], for which, in assay [1], the DC50 is less than 50 nM and the maximal degradation (Dmax) is more than 80%. The IC50 in assay [2] is less than 50 nM. In assay [3], this compound gave a DC50 of less than 50 nM and a Dmax of more than 80%.
Consider `CC(=O)c1c(C)c2cnc(Nc3ccc(N4CCN(CCC5CCN(C(=O)Nc6ccc7c(c6)CN(C6CCC(=O)NC6=O)C7=O)CC5)CC4)cn3)nc2n(C2CCCC2)c1=O` (centres unmarked) [Compound 46, 4-(2-(4-(6-((6-acetyl-8-cyclopentyl-5-methyl-7-oxo-7,8-dihydropyrido[2,3-d]pyrimidin-2-yl)amino)pyridin-3-yl)piperazin-1-yl)ethyl)-N-(2-(2,6-dioxopiperidin-3-yl)-1-oxoisoindolin-5-yl)piperidine-1-carboxamide], for which, in assay [1], the 50% degradation concentration (DC50) was 50 to 200 nM and the maximal degradation (Dmax) was more than 60%. Further, the IC50 in assay [2] was 50 to 200 nM. In assay [3], the DC50 is more than 200 nM and the Dmax was more than 60%.
On to `Cc1nc2c(F)cc(-c3nc(Nc4ccc(CN5CCN(C(=O)C6CCN(c7ccc(C(=O)NC8CCC(=O)NC8=O)cc7)CC6)CC5)cn4)ncc3F)cc2n1C(C)C` (centres unmarked) [Compound 155, N-(2,6-dioxopiperidin-3-yl)-4-(4-(4-((6-((5-fluoro-4-(4-fluoro-1-isopropyl-2-methyl-1H-benzo[d]imidazol-6-yl)pyrimidin-2-yl)amino)pyridin-3-yl)methyl)piperazine-1-carbonyl)piperidin-1-yl)benzamide], for which, in assay [1], the DC50 is more than 200 nM and the Dmax was more than 50%. The IC50 in assay [2] was in the range of 50 to 200 nM. Besides, in assay [3], the DC50 fell in the range of 50 to 200 nM and the greatest degradation seen (Dmax) was more than 50%.
Consider `CC(=O)c1c(C)c2cnc(Nc3ccc(N4CCN(C(=O)C5CCN(c6ccc(C(=O)NC7CCC(=O)NC7=O)cc6)CC5)CC4)cn3)nc2n(C2CCCC2)c1=O` (centres unmarked) [Compound 116, 4-(4-(4-(6-((6-acetyl-8-cyclopentyl-5-methyl-7-oxo-7,8-dihydropyrido[2,3-d]pyrimidin-2-yl)amino)pyridin-3-yl)piperazine-1-carbonyl)piperidin-1-yl)-N-(2,6-dioxopiperidin-3-yl)benzamide], for which the DC50 in assay [1] and in assay [3] was 50 to 200 nM throughout. Further, the maximal degradation (Dmax) in assay [1] and in assay [3] was more than 80% in each case. In assay [2], the IC50 lay within 50 to 200 nM.

One may read the DC50 as the midpoint of the concentration-degradation curve. A low value points to a more potent degrader. The Dmax is the largest share of the target that was removed. Read a high Dmax as a fuller loss of target.
